Data: patent publication US6303621A, “Method for treating cancers using a diiodo thyronine analogue having no significant hormonal activity and a vinca alkaloid and compositions comprising the same” (priority 1999, dated 2001)
“Also recorded” adds a separate entry of the source.

Columns and labels:
[1] = test system: DIME-tolerant clones DR6 and DR7; assay: Colony formation of DIME-tolerant clones; format: cell-based, human; conditions: concentrations that reduce colony formation by 10^3 in parent line
Excerpt: e. Colony formation was quantitated as reported by. Each colony of 50 cells is the outgrowth from one cell, plated 10 days before colony counting.

[2] = Toxicity, daily oral dosing in nude mice; format: in vivo; conditions: daily oral dose 1 g/kg, 12-15 days
Method: Ten nude mice were administered a daily oral dose of ^14 C-labeled DIME (Compound 1) (1.0 g/kg, 0.1 mL in corn oil) for a period of 12-15 days.

DIME-tolerant clones [3] = assay: DIME uptake by DIME-tolerant clones; conditions: DIME-tolerant clones grown in 1.5 μM DIME
Method: (§1) DIME-tolerant clones DR6and DR 7 were isolated by incubation of cells in a mediim containing 1.5 μM DIME for 11 days. At that time surviving colonies were picked with the use of cloning rings and plated for growth in fresh mediim still containing 1.5 μM DIME. After two weeks of growth in the presence of drug the cells were aliquoted and frozen. For each experiment a vial of frozen cells was thawed, the cells were plated in the absence of drug, and incubated for 2-3 days in drug-free mediim.

MDA-MB-231 xenografts = assay: Inhibition of MDA-MB-231 xenografts in nude mice; format: in vivo, human mammary cancer xenograft in nude mice
Excerpt: The ability of human tumors to grow as xenografts in athymic mice (e.g., nude mice) provides a useful in vivo model for studying the biological response to therapies for human tumors. Since the first successful xenotransplantation of human tumors into athymic mice (Rygaard et al., 1969, Acta Pathol. Microbial. Scand. 77:758-760), many different human tumor cell lines (e.g., mammary, lung, genitourinary, gastrointestinal, head and neck, glioblastoma, bone and malignant melanomas) have been successfully transplanted and grown into nude mice. Human mammary tumor cell lines, including MCF-7, ZR75-1 and MDA-MB-231, have been established as subcutaneous grafts in nude mice (Warri et al., 1991, Intl. J. Cancer 49:616-23; Ozzello et al., 1980, Eur. J. Cancer 16:553-559; Osbourne et al., 1985, Cancer Res. 45:584-590; Siebert et al., 1983, Cancer Res. 43:2223-2239).
MDA-MB-231 (human mammary cancer) cells were obtained from American Type Culture Collection (Rockville, Md.) and maintained in the recommended growth media. Twenty nude mice were each inoculated subcutaneously with MDA-MB-231 cells (10^6 cells/[…]). To one group often mice, DIME was administered by gavage (250 mg/kg, 10 mL/kg in corn oil) once […] per day, 5 days per week, for a total of 32 days. The other (control) group of ten mice was given administered vehicle only according to the same dosing schedule. Tumors were measured twice weekly using a Vernier caliper, and the mean tumor volume was determined at each time point. Comparisons between groups were made using an unpaired, two-tailed t-test and the results were analyzed using analysis of variance.

malignant tumor growth = assay: Activity of DIME in vivo (general statement)
human cancer cells = assay: Cytostatic / cytocidal activity of DIME analogues on human cancer cells; format: cell-based
Excerpt: Such tests may also screen for the ability of a particular compound to inhibit malignant tumor cell growth in vitro or in vivo or abolish tumorigenicity of malignant cells.
As will be appreciated by the skilled artisan, many varieties of malignant tumor cell cultures and cell lines may be used to screen for activity, including but not limited to HL-60, HT-144, E-ras-20, DU-145, MDA-168, MCF-7, 855-2 and MDA-MB-231. Of course, other in vitro and/or in vivo assays as will be apparent to the skilled artisan to screen for anti-tumor and/or anti-cancer activity may also be employed to identify effective diiodo thyronine analogues useful in the present invention.

tubulin α+β = assay: Inhibition of tubulin polymerization / assembly of microtubules; format: biochemical; conditions: FIG. 4b
Method: The optical tests were performed as reported by Buki et al., International Journal of Oncology 10:911-913 (1997).

[4] = Serum half-life and bioavailability of 14C-labeled DIME; format: in vivo; conditions: mice
Method: Mice were orally dosed with 126 mg/kg 14C-labeled DIME (Compound 1). After dosing, blood sampling times were 15 and 30 minutes and 1, 2, 4, 6, 8 and 24 hours. Aliquots (50 μL) of blood were assayed in a liquid scintillation counter and data expressed as microgram-equivalents per mL. The blood level data were analyzed by the […] method (Micromath, Salt Lake City, Utah). Parallel groups of mice were dosed intravenously with 24.5 mg/kg 14C-labeled DIME and blood sampling times were 10, 20 and 30 minutes and 1, 2, 4, 6 and 8 hours.

caspase 3 = assay: Caspase 3 assay in drug-treated cells; format: cell-based, human; conditions: 0.75 μM DIME or 2 nM vincristine alone, 3 days
Method: g. Caspase 3 assay. MDA 231 cells were grown for 3 days in the absence of drugs (control) or in the presence of 0.75 μM DIME, or in the presence of 2 nM vincristine, or in the presence of both drugs. After harvesting and washing the cells with PBS, they were lysed in a lysis buffer (10 mM HEPES, 5 mM DTT, 2 mM EDTA, 1 mM PMSF, 0.1% CHAPS, 20 μg/ml each of aprotinin, leupeptin, pepstatin, pH 7.4), and were frozen and thawed 3 times. […] Each cell extract was incubated at room temperature with and without preincubation with the caspase inactivator DEVD-CMK. The difference of fluorescence was plotted against time. The fluorescence was calibrated with the fluorophore AFC.

tumor cells = assay: Tumor cell apoptosis and micronucleation; format: cell-based
tadpole metamorphosis = conditions: in vivo; cited from earlier work
DIME-tolerant clones [5] = test system: DIME-tolerant clones
Method: as §1

With COC(=O)c1cc(I)c(Oc2ccc(OC)cc2)c(I)c1 [DIME, methyl 3,5-diiodo-4-(4'-methoxyphenoxy) benzoate] the “Inhibition of colony formation of DR6 and DR7 clones” value [1] was “only marginal inhibition of colony formation”, the Ill effects [2] was “remarkably nontoxic; also recorded: No ill effects were observed” and the “Reduction of DIME uptake” value (DIME-tolerant clones [3]) was 50%. For the same compound, the “Growth of mammary cancer xenografts (MDA-MB-231)” value (MDA-MB-231 xenografts; 250 mg/kg by gavage once daily, 5 days a week for 32 days, nude mice) was “significant reduction of malignant tumor growth”, the “MDA-MB-231 tumor volume, Day 14 ± SEM” value (MDA-MB-231 xenografts; DIME 250 mg/kg by gavage, 5 days per week, 32 days, control 284.6 ± 42.0, p = 0.06, in mm³ (unit assumed)) was 172.0 ± 34.3 and the “MDA-MB-231 tumor volume, Day 21 ± SEM” value (MDA-MB-231 xenografts; DIME 250 mg/kg by gavage, control 622.2 ± 58.1, p = 0.02, in mm³ (unit assumed)) was 285.7 ± 62.4. For the same compound, the “MDA-MB-231 tumor volume, Day 32 ± SEM” value (MDA-MB-231 xenografts; DIME 250 mg/kg by gavage, control 1176.6 ± 222.4, p = 0.01, in mm³ (unit assumed)) was 543.8, the “% decrease (tumor volume), Day 14” value (MDA-MB-231 xenografts; DIME 250 mg/kg vs control) was 40% and the “% decrease (tumor volume), Day 21” value (MDA-MB-231 xenografts; DIME 250 mg/kg vs control) was 54%. The “% decrease (tumor volume), Day 28” value (MDA-MB-231 xenografts; DIME 250 mg/kg vs control) was 56%, the “% decrease (tumor volume), Day 32” value (MDA-MB-231 xenografts; DIME 250 mg/kg vs control) was 54% and the Activity in vivo (malignant tumor growth) was “highly active”. The “Cytostatic and cytocidal activity in cellular assays” value (human cancer cells) was “highly active”, the “Growth of malignant cell types” value (human cancer cells) was “inhibit the growth of a variety of malignant cell types” and the “Inhibition of assembly of microtubules, DIME versus DIPE” value (tubulin α+β) was “equivalency; also recorded: Inhibitory effects”. The “half-life (t1/2) in serum” value [4] was 2 to 2.5 h, the “Activation of caspase 3, single drug” value (caspase 3) was “small rate of caspase 3 activity” and the “Tumor cell apoptosis / micronucleation” value (tumor cells) was “induce tumor cell apoptosis preceded by micronucleation”. The “Metabolic or cell differentiating activity (tadpole metamorphosis)” value (tadpole metamorphosis) was “no significant metabolic or cell differentiating activity” and the “Drug permeation in DIME-tolerant cells” value (DIME-tolerant clones [5]) was “significant decrease of drug permeation”.
